Laboratory results as given in patent publication US20260199287A1, “LIPO-HYDROXAMIC ACID DERIVATIVE AND PHARMACEUTICAL USE THEREOF” (MediciBIO Co., Ltd, priority 2022, published 2026).
Read-outs that look alike come from different tables or passages of the source.

Experiments:
[1] = Stability as an eye drop composition (HPLC peak area); format: physicochemical; settings: for Peak area(%) Sample 1 / Peak area(%) Total amount of decomposed products: HPLC
Procedure: In order to identify the stability of the lipo-hydroxamic acid derivative prepared above as an eye drop composition, the ratio (peak area, % o) of the active ingredient and decomposed product of the sample (Sample 1) was determined via HPLC analysis.

[2] = format: in vitro ADME
[3] = tested on: human corneal endothelial cells; test: In vitro antioxidant activity, ROS-Glo H2O2 assay in corneal dystrophy-like environment; format: cell-based; settings: compared to control group (corneal dystrophy-mimicking: UV 5 J/cm^2 + TGF-β1 10 ng/ml); sample 4 h before induction
Procedure: (§1) PriNeu I medium, which is a serum-free medium, was supplemented with 10% fetal bovine serum, human epidermal growth factor (EGF), human vascular endothelial growth factor (VEGF), human insulin, human transferrin, sodium selenite, hydrocortisone, heparin, R estradiol, L-glutamine, penicillin/streptomycin, and G418 (geneticin). Human corneal endothelial cells (purchased from Creative Biolabs (NY, USA)) were seeded onto culture dishes coated with FNC Coating Mix (Athena Environmental Science, MD, USA) and incubated at 37° C. in a humidified 5% CO2 atmosphere.
To establish an intracellular environment similar to that of cells affected by corneal dystrophy (hereinafter referred to as “corneal dystrophy-like environment”), cellular signaling pathways involving reactive oxygen species (ROS) and transforming growth factor-beta (TGF-β), both known to be associated with corneal dystrophy, were activated. Human corneal endothelial cells were first cultured in standard medium for 24 hours, after which the medium was replaced with serum-free PriNeu I medium. The cells were then irradiated at an intensity of 5 J/cm^2 using a UV irradiation (BLX-Link, Vilber, France). Subsequently, the cells were treated with recombinant human TGF-β1 protein at a concentration of 10 ng/ml (Bon Opus, NJ, USA).
To determine the effect of the above-prepared lipo-hydroxamic acid derivatives on oxidative stress activity in corneal endothelial cells, human corneal endothelial cells were cultured at 1.5×10^4 cells per well in a 96-well plate coated with FNC Coating Mix for 18 to 24 hours. Subsequently, the cells were treated with the test samples (Samples 1, 3, and 5). […] The oxidative stress activity was determined by measuring the level of hydrogen peroxide (hereinafter referred to as “H2O2”) in the cell culture medium using the ROS-Glo™ H2O2 Assay (Promega, WI, USA) according to the manufacturer's instructions. The luminescence intensity was measured using the GloMax® Discover microplate reader (Promega) at an excitation wavelength of 485 nm and an emission wavelength of 520-530 nm.

[4] = tested on: human corneal endothelial cells; test: Anti-apoptotic effect, CellTiter-Glo 2.0 cell viability assay in corneal dystrophy-like environment; format: cell-based; settings: compared to control group (corneal dystrophy-mimicking); 24 hours treatment
Procedure: as §1, with “atmosphere. […]” for “atmosphere.”
In order to identify the effect of the lipo-hydroxamic acid derivative prepared above on apoptosis caused by corneal dystrophy in corneal endothelial cells, human corneal endothelial cells were cultured in the same manner as in Example 3-1. […] Afterwards, the samples (Samples 1, 4, and 5) were pretreated for 24 hours, and cell viability was measured via the CellTiter-Glo 2.0 cell viability assay (Promega). The number of viable cells was determined based on intracellular ATP levels, and the luminescence intensity was measured using a GloMax Discover microplate reader (Promega).

[5] = tested on: nuclear factor erythroid-2-related factor 2 (Nrf2); test: Western blot of Nrf2 protein expression; format: cell-based, human; settings: compared to the control; corneal dystrophy-like environment
Procedure: To identify a mechanism of antioxidant activity of the lipo-hydroxamic acid derivative prepared above, Western blot was performed to detect protein expression of nuclear factor erythroid-2-related factor 2 (Nrf2; NCBI Gene ID: 4780) which is an antioxidant transcription factor. First, human corneal endothelial cells were cultured at 3×10^5 cells per well in a 6-well plate coated with FNC Coating Mix for 18 to 24 hours, and the samples were treated. Four hours after the sample treatment, the corneal dystrophy-like environment was induced in accordance with the method described in Example 3-2. Twenty-four hours after induction of the corneal dystrophy-like environment, the cells were washed with phosphate-buffered saline (PBS) and lysed using RIPA lysis buffer (GenDEPOT) containing protease inhibitor cocktail tablets (GenDEPOT, TX, USA). The cell lysates were centrifuged at 13,000 rpm at 4° C. for 10 minutes to obtain the supernatant. Protein concentration in the supernatant was determined using a BCA kit (Thermo Fisher Scientific, MA, USA). Equal amounts of protein were mixed with 5x SDS sample buffer and boiled for 5 minutes, followed by gel electrophoresis. The separated proteins were transferred to a nitrocellulose membrane (GenDEPOT), and nonspecific antibody binding was blocked by incubating the membrane in 5% skim milk at room temperature for 1 hour. […]

NQO-1 = test: Real-time PCR, NQO-1 mRNA; format: cell-based, human; settings: corneal dystrophy-like environment
Procedure: (§2) To identify the antioxidant mechanism of the lipo-hydroxamic acid derivative prepared above, real-time PCR was performed to detect the mRNA expression levels of the antioxidant enzymes downstream of Nrf2. First, human corneal endothelial cells were cultured at 3×10^5 cells per well in a 6-well plate coated with FNC Coating Mix for 18 to 24 hours, and the samples were treated. Four hours after the sample treatment, the corneal dystrophy-like environment was induced using the same method as described in Example 3-2. Twenty-four hours after inducing the corneal dystrophy-like environment, RNA was isolated from the cells using an RNA extraction kit (Bioneer, Daejeon), and cDNA was synthesized from […] of RNA using RT PreMix (Bioneer). Subsequently, real-time PCR was performed using GoTaq mater mix (Promega) containing SYBR green solution at 95° C. for 2 minutes, followed by 35 cycles at 95° C. for 15 seconds and at 60° C. for 1 minute.

HO-1 = test: Real-time PCR, HO-1 mRNA; format: cell-based, human; settings: corneal dystrophy-like environment
Procedure: as §2

peroxiredoxin 1 (Prdx1) = test: Real-time PCR, Prdx1 mRNA; format: cell-based, human; settings: corneal dystrophy-like environment
Procedure: as §2

ABCB6 = test: Real-time PCR, ABCB6 mRNA; format: cell-based, human; settings: corneal dystrophy-like environment
Procedure: as §2

Smad2/3 = test: Western blot of Smad2/3 phosphorylation; format: cell-based, human; settings: compared to the control group (corneal dystrophy-mimicking)
Smad3 = test: SMAD3 (pS423/pS425) ELISA; format: cell-based, human; settings: compared to the control group (corneal dystrophy-like environment)
Procedure: To identify the effect of the lipo-hydroxamic acid derivative prepared above on the expression of factors associated with fibrosis- and cellular degeneration-related factors in corneal endothelial cells, ELISA was performed to observe the activity of Smad3 protein. Analysis was carried out using SMAD3 (pS423/pS425) Human InstantOne ELISA kit (Thermo Fisher Scientific) according to the manufacturer's instructions. Human corneal endothelial cells were seeded in a 96-well plate at 2×10^4 cells per well, cultured for 24 hours, and then treated with the sample. Twenty-four hours after the sample treatment, the corneal dystrophy-like environment was induced in the same manner as in Example 3-2. Twenty-four hours after the induction, the cells were washed with PBS, lysed by adding 100 μL of lysis buffer mixture prepared by mixing the cell lysis reagent and buffer supplied in the kit. Subsequently, 50 μL of the cell lysate from each sample was added to the ELISA microplate wells. A 1:1 mixture of capture antibody and detection antibody, as provided in the kit, was prepared to form an antibody cocktail, and 50 μL of this mixture was added to each well. The plate was sealed and incubated at room temperature on a shaker at 300 rpm for 1 hour. […] The plate was then read using a microplate reader (Promega) at an absorbance of 450 nm.

N-cadherin = test: Real-time PCR, N-cadherin mRNA; format: cell-based, human; settings: corneal dystrophy-like environment
Procedure: as §2
(§3) To identify the effect of the lipo-hydroxamic acid derivative prepared above on the expression of fibrosis- and cellular degeneration-related factors in corneal endothelial cells, real-time PCR was performed to detect mRNA expression levels of the fibrosis marker N-cadherin, and the cellular degeneration markers collagen I and fibronectin. The real-time PCR was performed in the same manner as in Example 5-2 above.

collagen I = test: Real-time PCR, collagen I mRNA; format: cell-based, human; settings: corneal dystrophy-like environment
Procedure: as §2, §3

fibronectin = test: Real-time PCR, fibronectin mRNA; format: cell-based, human; settings: corneal dystrophy-like environment
Procedure: as §2, §3

cleaved caspase-3 = test: Western blot of cleaved caspase-3; format: cell-based, human; settings: compared to the control group; environment induced 24 hours after sample treatment
Procedure: (§4) To identify a mechanism of antioxidant activity of the lipo-hydroxamic acid derivative prepared above, Western blot was performed to detect protein expression of nuclear factor erythroid-2-related factor 2 (Nrf2; NCBI Gene ID: 4780) which is an antioxidant transcription factor. First, human corneal endothelial cells were cultured at 3×10^5 cells per well in a 6-well plate coated with FNC Coating Mix for 18 to 24 hours, and the samples were treated. Four hours after the sample treatment, the corneal dystrophy-like environment was induced in accordance with the method described in Example 3-2. […] Protein concentration in the supernatant was determined using a BCA kit (Thermo Fisher Scientific, MA, USA). […]
To identify the effect of the lipo-hydroxamic acid derivative prepared above on apoptosis in corneal endothelial cells, Western blot was performed to detect the protein expression of cleaved caspase-3 which is a major protease involved in apoptosis. […] The anti-cleaved caspase-3 antibody (Asp175; Cell Signaling Technology) was used as the primary antibody, and the cleaved caspase-3 expression was detected by a chemiluminescence image analysis system.

Sprague-Dawley rats = test: Antioxidant activity in vivo, H2O2 level after benzalkonium-induced corneal oxidative stress; set-up: species or system rat; settings: 0.1% and 0.3% eye drops, 10 μL, three times a day for 3 days; compared to control (0.02% benzalkonium)
Procedure: To determine the effect of the sample on oxidative stress, animal experiments were conducted using Sprague-Dawley rats (purchased from Bio Link). To induce oxidative stress in the cornea of an animal model, the anterior chamber of the right eye was punctured using a syringe equipped with a 30G needle, and then the needle was inserted into the corneal limbus to inject 0.02% benzalkonium (BAK), a known oxidative stress inducer. The ocular surface was subsequently rinsed with sterile saline. To determine whether oxidative stress was induced, the H2O2 level, an indicator of oxidative stress, was measured in the anterior aqueous humor and corneal tissue using the Amplex Red Hydrogen Peroxide/Peroxidase assay kit (Invitrogen, MA, USA) according to the manufacturer's instructions. Afterwards, the animal model received 10 μL drops (single dose) of the sample (Sample 1) at a dose of 0.1% or 0.3% for 24 hours, including pretreatment, three times a day for 3 days, and then the H2O2 level in the anterior aqueous humor was measured. Additionally, proteins were extracted from the harvested corneal tissue, and Western blot was performed in the same manner as in Example 5-1 to examine the expression of the Nrf2 protein. […]

Nrf2 = Nrf2 protein expression in corneal tissue in vivo (Western blot); set-up: species or system rat; settings: 0.1% and 0.3% eye drops; compared to control (0.02% benzalkonium)
Procedure: as §4
To determine the effect of the sample on oxidative stress, animal experiments were conducted using Sprague-Dawley rats (purchased from Bio Link). […] To determine whether oxidative stress was induced, the H2O2 level, an indicator of oxidative stress, was measured in the anterior aqueous humor and corneal tissue using the Amplex Red Hydrogen Peroxide/Peroxidase assay kit (Invitrogen, MA, USA) according to the manufacturer's instructions. Afterwards, the animal model received 10 μL drops (single dose) of the sample (Sample 1) at a dose of 0.1% or 0.3% for 24 hours, including pretreatment, three times a day for 3 days, and then the H2O2 level in the anterior aqueous humor was measured. […]

O=C(CCCCC1CCSS1)NOCCO (stereo not drawn) [Sample 1, 5-[1,2]dithiolan-3-yl-pentanoic acid (2-hydroxy-ethoxy)-amide]
Peak area(%) Sample 1 ([1]; Day 1): 99.36%
Peak area(%) Total amount of decomposed products ([1]; Day 1): 0.62%
Peak area(%) Sample 1 ([1]; Day 2): 99.20%
Peak area(%) Total amount of decomposed products ([1]; Day 2): 0.80%
Peak area(%) Sample 1 ([1]; Day 3): 99.36%
Peak area(%) Total amount of decomposed products ([1]; Day 3): 0.64%
Peak area(%) Sample 1 ([1]; Early stage): 99.72%
Peak area(%) Total amount of decomposed products ([1]; Early stage): 0.28%
stability in a liquid phase ([1]; up to day 3): good stability
Peak area (%) ([2]; 0.5 h): 97.37%
Peak area (%) ([2]; 2 h): 92.65%
Peak area (%) ([2]; 18 h): 17.42%
Peak area (%) ([2]; 24 h): 6.00%
oxidative stress (H2O2 level in cell culture medium) [3]: significantly decreased
concentration from which a significant increase in cell viability was observed [4]: ≥ 30 µM
Nrf2 protein expression [5]: significantly increased
mRNA expression of NQO-1 (NQO-1): significantly increased
mRNA expression of HO-1 (HO-1): significantly increased
mRNA expression of peroxiredoxin 1 (Prdx1) (peroxiredoxin 1 (Prdx1)): significantly increased
mRNA expression of ABCB6 (ABCB6): significantly increased
phosphorylation of Smad2/3 protein (Smad2/3): significantly decreased
activity of the Smad3 protein (Smad3): significantly decreased
mRNA expression of N-cadherin (N-cadherin): significantly decreased in a concentration-dependent manner
mRNA expression of collagen I (collagen I): significantly decreased in a concentration-dependent manner
mRNA expression of fibronectin (fibronectin): significantly decreased in a concentration-dependent manner
protein expression of cleaved caspase-3 (cleaved caspase-3): significantly decreased in a concentration-dependent manner
decrease of H2O2 in the anterior aqueous humor (Sprague-Dawley rats): 40-70%
Nrf2 expression in corneal tissue (Nrf2): significantly increased depending on the concentration of the sample

CN(OCCO)C(=O)CCCC[C@@H]1CCSS1 [Sample 3, (R)-5-[1,2]dithiolan-3-yl-pentanoic acid (2-hydroxy-ethoxy)-methyl-amide]
oxidative stress (H2O2 level in cell culture medium) [3]: significantly decreased

O=C(CCCCC1CCSS1)N(O)C(=O)CCCCC1CCSS1 (stereo not drawn) [Sample 5, 5-[1,2]dithiolan-3-yl-pentanoic acid (5-[1,2]dithiolan-3-yl-pentanoyl-hydroxy-amide)]
oxidative stress (H2O2 level in cell culture medium) [3]: significantly decreased
